# Laboratory results published in PMC3553074 (PLoS ONE, 2013).
# Target: Ft-MglA/Ft-SspA complex (Francisella tularensis, UniProt Q5NFG1+Q5NHJ6)
# Sequence (Q5NFG1 1-205): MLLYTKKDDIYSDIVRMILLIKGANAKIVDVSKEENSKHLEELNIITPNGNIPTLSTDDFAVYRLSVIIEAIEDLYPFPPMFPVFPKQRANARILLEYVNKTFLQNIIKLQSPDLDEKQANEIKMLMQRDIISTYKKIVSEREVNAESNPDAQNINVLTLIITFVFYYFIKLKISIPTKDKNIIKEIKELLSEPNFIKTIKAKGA
# Sequence (Q5NHJ6 1-210): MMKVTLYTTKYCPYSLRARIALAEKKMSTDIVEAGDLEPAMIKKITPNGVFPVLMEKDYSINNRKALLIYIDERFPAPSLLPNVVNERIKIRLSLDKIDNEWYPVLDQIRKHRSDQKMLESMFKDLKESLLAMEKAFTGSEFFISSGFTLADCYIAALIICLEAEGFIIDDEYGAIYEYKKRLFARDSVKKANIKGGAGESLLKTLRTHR
smiles,measurement,value
CCN(CC)CCCC(C)Nc1c2ccc(Cl)cc2nc2ccc(OC)cc12 (stereo not shown) [quinacrine],ΔTm (Tm1),24.0 °C
